This is an account of results in ChEMBL document CHEMBL3639274, “Compounds for the treatment of neurodegenerative diseases” (2015).

The structures appear in SMILES notation.

The target in the first assay is Microtubule-associated protein tau (Homo sapiens, UniProt P10636). Briefly: Thio S Fluorometry Assay: The Thio S fluorometry assay as a primary screening method to identify tau protein aggregation inhibitors from our small molecule library. Aggregated tau fibrils were prepared in the presence of equimolar ratios of TauRD and heparin (10 μM each) in 20 mM Na-phosphate buffer, pH7.4. The reaction mixture was incubated at 37° C. with shaking (800-1000 rpm) for 22-24 hr (or for 3 days). In the Thio S inhibition assays, test compounds at 0, 0.1, 1, 10 and 100 μM were added at time 0 into the reaction containing TauRD and heparin. The same reaction mixture (+/− increasing concentrations of compounds) but without TauRD were also set up in parallel to serve as background controls. For all test compounds background fluorescence readings were very low, usually <5% of those of the TauRD-containing wells. For each compound, the IC50 was calculated using Prism version 5 software (GraphPad Software) by nonlinear regression [(Log [inhibitor] vs. normalized response; variable slope)].
Chain of Microtubule-associated protein tau (P10636 whole entry): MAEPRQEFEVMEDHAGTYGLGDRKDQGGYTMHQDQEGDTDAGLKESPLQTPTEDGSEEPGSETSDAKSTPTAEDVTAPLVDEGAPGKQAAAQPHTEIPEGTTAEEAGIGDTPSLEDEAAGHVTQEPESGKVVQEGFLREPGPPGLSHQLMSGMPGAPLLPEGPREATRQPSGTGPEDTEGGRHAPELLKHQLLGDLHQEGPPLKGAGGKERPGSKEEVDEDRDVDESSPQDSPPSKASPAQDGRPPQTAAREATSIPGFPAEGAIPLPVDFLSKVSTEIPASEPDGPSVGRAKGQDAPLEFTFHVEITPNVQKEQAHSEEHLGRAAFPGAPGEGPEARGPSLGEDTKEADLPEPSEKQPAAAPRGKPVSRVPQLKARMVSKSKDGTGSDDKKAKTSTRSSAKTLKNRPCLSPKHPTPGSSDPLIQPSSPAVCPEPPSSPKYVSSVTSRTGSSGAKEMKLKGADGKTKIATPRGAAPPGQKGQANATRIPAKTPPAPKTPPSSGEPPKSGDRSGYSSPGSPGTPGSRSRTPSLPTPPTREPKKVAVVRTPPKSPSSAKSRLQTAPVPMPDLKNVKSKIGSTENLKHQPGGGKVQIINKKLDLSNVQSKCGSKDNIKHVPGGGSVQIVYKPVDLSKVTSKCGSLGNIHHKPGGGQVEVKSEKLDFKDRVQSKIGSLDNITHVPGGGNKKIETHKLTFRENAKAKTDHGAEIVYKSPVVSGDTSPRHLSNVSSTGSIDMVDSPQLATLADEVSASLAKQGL
The IC50 is the concentration at which inhibition is half-maximal. For the compound `O=C(/C=C/c1ccc(O)c(O)c1)c1ccc(O)c(O)c1`, the half-maximal inhibitory concentration (IC50) was 21.4 µM.

For `O=C(/C=C/c1ccc(O)c(O)c1)c1cc(O)c(O)cc1Br`, the IC50 was 21.2 µM.

Regarding `Oc1ccc(-c2cc(Br)c(-c3ccc(O)c(O)c3)s2)cc1O`, the IC50 is 211 µM.

In the case of `Oc1ccc(-c2nsc(-c3ccc(O)c(O)c3)n2)cc1O`, the IC50 is 10.2 µM.

On to `Oc1ccc(-c2nc3cc(O)c(O)cc3o2)cc1O`, for which the IC50 was 7.34 µM.

For the compound `Oc1ccc(-c2nnc(-c3ccc(O)c(O)c3)o2)cc1O`, the IC50 is 3940 µM.

`Oc1ccc(-c2cn(-c3ccc(O)c(O)c3)nn2)cc1O`: the IC50 is 34 µM.

Take `Oc1ccc(-c2cnc(-c3ccc(O)c(O)c3)o2)cc1O`: the IC50 is 117 µM.

As to `O=C(/C=C/c1cc(O)c(O)cc1Br)c1ccc(O)c(O)c1`, the IC50 is 9.02 µM.

With `Oc1ccc(Cc2cc(O)c(O)cc2O)cc1O`, the IC50 is 5.2 µM.

For `CC(=O)N1N=C(c2ccc(O)c(O)c2)CC1c1ccc(O)c(O)c1` (stereo not drawn), the IC50 was 78.5 µM.

As for `O=[N+]([O-])c1cc(-c2ccc(O)c(O)c2)ccc1-c1ccc(O)c(O)c1`, the IC50 was 24.7 µM.

The target of another assay is Alpha-synuclein (Homo sapiens, UniProt P37840). As to the kind of experiment: In order to assess relative binding affinities of the test compounds for aggregated α-synuclein, competition assays were set up with a radiolabeled molecule already known to bind to α-synuclein fibrils and non-radiolabeled test compounds. In order to induce its aggregation, α-synuclein was incubated in phosphate buffered saline (PBS, pH 7.4) at 37° C. for three days with shaking (1,400 rpm). Competitive binding assays were carried out in 12×75 mm borosilicate glass tubes.
Usually Ki stands for a dissociation constant, usually derived from enzyme kinetics or from competition with a known ligand. Low readings indicate higher affinity, high ones lower affinity. The compound `Oc1ccc(-c2cnc(-c3ccc(O)c(O)c3)o2)cc1O` had a Ki of 0.659 µM. In other words, the sub-micromolar range.
